Laboratory results reported in US6623933B1 (priority 1999, dated 2003).
Where a name gives a salt, the structure may show the parent alone.

How the values were obtained:
NR1/NR2D (NR1100) = NR1/NR2D (NR1100) (Rattus norvegicus, UniProt P35439+Q62645); experiment: cell-based
Description: (§5) Plasmids containing the NR1100 (NR1G) and NR2A cDNA inserts were kindly provided by Dr. Nakanishi (Kyoto University Faculty of Medicine, Kyoto, Japan). Plasmids containing the NR2B, NR2C and NR2D cDNA inserts were kindly provided by Dr. P. Seeburg (Heidelberg University, Heidelberg, Germany). Plasmids were linearized with appropriate restriction enzyme prior to in vitro transcription using the Message Machine kit (Ambion, Inc., Austin, Tex.).
(§6) Female, oocyte-positive Xenopus laevis frogs were purchased from Xenopus I (Dexter, Mich.). […] Oocytes were injected with 50 nL of RNA solutions using an electronic microinjector (Drummond Inc., Broomall, Pa.). […] The injected oocytes were used for experiments following 1-5 days of incubation in Barth's solution at 18-20° C.
(§7) The microelectrodes were fabricated from borosilicate glass capillaries with a programmed puller (Sutter Instrument Co., Calif.). Microelectrode resistance was 1-3 MΩ_when filled with 3 M KCl.
(§8) Except where otherwise stated, oocytes were clamped at a holding potential of −70 mV during data acquisition. The membrane current was filtered at 500 Hz and sampled at 100 Hz. Drugs were applied using a gravity-driven external perfusion system. The working volume of the recording chamber was 30 μl and the rate of the perfusion was 50 μl/sec. The drug application lasted 10 sec and was followed by 60 s wash. Data acquisition and external perfusion were controlled using custom-written software implemented in the SuperScope II development environment (GW Instruments, Mass.). All experiments were performed at room temperature of 22-24° C. Peak or steady-state current measurements were normalized and expressed as a fraction of the peak or steady-state control current measurements, which were performed before and after application of every single concentration of agonists or steroids.
(§9) Concentration-response data were analyzed by nonlinear regress ion using the logistic equation Response=Emax/(1+(EC50/c)^nH), where c is concentration, Emaxis the maximum response, nHis the Hill coefficient. The data are presented as mean±SEM. EC50values are averaged as logarithms (De Lean et al., Am. J. Physiol. 235: E97-E102 (1978))±the SEM of the log EC50. […] The pooled data were simultaneously fitted to the logistic equation, either with Emax and EC50 constrained to be identical in the presence and absence of PS, or allowing one or both to vary independently. […] This was regarded as indicating a significant treatment effect of PS, but the change in EC50and Emaxwas not considered significant. […] No attempt was made to test the generally small changes in nHfor statistical significance.

NR1/NR2B (NR1100) = NR1/NR2B (NR1100) (Rattus norvegicus, UniProt P35439+Q00960); experiment: cell-based
Description: as §5, §6, §7, §8, §9

[1] = test system: NMDA receptor (chick spinal cord neurons); details: Park-Chung et al. 1997; cited from earlier work
NR1/NR2A (NR1100) = NR1/NR2A (NR1100) (Rattus norvegicus, UniProt P35439+Q00959); experiment: cell-based
Sequence of NR1/NR2A (NR1100) (Q00959 23-1464, other chains not shown): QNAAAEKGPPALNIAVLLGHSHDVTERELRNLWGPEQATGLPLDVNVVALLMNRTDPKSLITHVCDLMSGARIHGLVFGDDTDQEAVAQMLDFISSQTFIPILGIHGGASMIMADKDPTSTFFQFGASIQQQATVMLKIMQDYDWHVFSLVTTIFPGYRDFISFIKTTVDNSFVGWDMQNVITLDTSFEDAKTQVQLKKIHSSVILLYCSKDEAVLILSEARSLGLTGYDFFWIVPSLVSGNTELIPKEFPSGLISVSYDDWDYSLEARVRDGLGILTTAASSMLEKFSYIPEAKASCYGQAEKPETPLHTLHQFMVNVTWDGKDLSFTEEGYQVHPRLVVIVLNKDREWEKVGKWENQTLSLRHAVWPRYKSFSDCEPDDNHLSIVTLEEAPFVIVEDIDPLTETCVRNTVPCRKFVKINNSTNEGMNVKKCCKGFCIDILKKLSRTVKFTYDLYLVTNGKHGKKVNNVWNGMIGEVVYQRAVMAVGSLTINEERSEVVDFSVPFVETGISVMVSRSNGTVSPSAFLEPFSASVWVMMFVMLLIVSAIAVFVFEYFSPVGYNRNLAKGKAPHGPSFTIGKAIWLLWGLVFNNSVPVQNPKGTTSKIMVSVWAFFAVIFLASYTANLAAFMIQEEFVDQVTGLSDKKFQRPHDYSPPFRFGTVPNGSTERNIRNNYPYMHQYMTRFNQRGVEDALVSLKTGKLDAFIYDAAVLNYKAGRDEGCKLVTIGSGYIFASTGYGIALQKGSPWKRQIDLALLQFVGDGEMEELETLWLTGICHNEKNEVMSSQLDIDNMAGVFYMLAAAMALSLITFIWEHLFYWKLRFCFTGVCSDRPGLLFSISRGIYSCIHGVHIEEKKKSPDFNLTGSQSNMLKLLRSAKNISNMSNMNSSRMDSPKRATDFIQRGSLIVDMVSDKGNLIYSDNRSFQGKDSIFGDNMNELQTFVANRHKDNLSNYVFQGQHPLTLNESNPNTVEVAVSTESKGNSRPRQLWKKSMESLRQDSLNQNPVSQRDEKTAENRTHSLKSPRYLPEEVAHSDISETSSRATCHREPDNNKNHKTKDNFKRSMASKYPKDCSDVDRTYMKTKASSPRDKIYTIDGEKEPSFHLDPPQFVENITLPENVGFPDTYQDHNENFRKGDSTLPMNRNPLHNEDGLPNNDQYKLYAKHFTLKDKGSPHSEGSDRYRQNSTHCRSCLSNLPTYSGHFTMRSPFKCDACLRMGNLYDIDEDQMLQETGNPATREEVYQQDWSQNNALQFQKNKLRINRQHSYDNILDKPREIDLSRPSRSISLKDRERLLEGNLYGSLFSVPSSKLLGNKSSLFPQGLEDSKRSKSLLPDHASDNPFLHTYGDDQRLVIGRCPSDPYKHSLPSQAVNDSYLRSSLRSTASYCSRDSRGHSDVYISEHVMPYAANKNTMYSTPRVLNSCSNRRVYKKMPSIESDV
Description: as §5, §6, §7, §8, §9

[2] = test system: primary cultures of rat hippocampal neurons; experiment: NMDA-induced increase in [Ca2+]i, Fluo-3 AM; format: cell-based; details: 5 μM NMDA; steroid 100 μM (3α5β 50 μM)
Experimental: Principally neuronal cultures were prepared from hippocampal tissue of fetal Sprague-Dawley rats on day 18 of embryonic development, as previously described (Brewer et al., Brain Research 494: 65-74 (1989)). Briefly, hippocampal cells were dissociated by trituration in Ca^2+/Mg^2+-free Hank's basic salt solution (Gibco) supplemented with 4.2 mM bicarbonate, 1 mM sodium pyruvate, 20 mM HEPES, 3 mg/ml bovine serum albumin (BSA). Dissociated cells were then pelleted by centrifugation (500×g, 4 min). […] Cells were then plated onto poly-L-lysine-coated 24-well culture dishes (Nunclon) at a density of 15,000 cell/cm^2 and maintained in a humidified atmosphere containing 5% CO2/95% air at 37° C. After 48 h, nonneuronal cell division was inhibited by a 48 h exposure to 1 μM cytosine arabinoside. Cultures were subsequently maintained in serum-free DMEM plus defined components and were used for experiments 16 to 24 days after plating.
DMSO was also added to controls to maintain a constant final DMSO concentration of […].
All data are expressed as mean±standard error of the mean. Statistical significance was evaluated using 95% confidence limits unless otherwise noted.

NR1/NR2B = biological target: T1, NR1/NR2B (Rattus norvegicus, UniProt P35439+Q00960); experiment: NMDA-induced membrane currents, Xenopus oocytes, Example 7; format: cell-based
T1 construct: expressed in transfected cells; host or cells: Xenopus oocytes injected with mRNA
Experimental: (§10) Plasmids were linearized with appropriate restriction enzyme prior to in vitro transcription using the Message Machine kit (Ambion, Inc., Austin, Tex.).
(§11) Oocytes were injected with 50 nL of RNA solutions using an electronic microinjector (Drummond Inc., Broomall, Pa.). […] The injected oocytes were used for experiments following 1-5 days of incubation in Barth's solution at 18-20° C.
(§12) The microelectrodes were fabricated with a programmed puller (Sutter Instrument Co., Calif.) from borosilicate glass capillaries and were filled with 3 M KCl solution. The resistance of filled microelectrodes was in the range of 1-3 MΩ. […] If not mentioned otherwise, during data acquisition oocytes were clamped at a holding potential of −70 mV. The membrane current was filtered at 500 Hz and sampled at 100 Hz. Drugs were applied using a gravity driven external perfusion system. The working ,volume of the recording chamber was 30 μl and the rate of the perfusion was 50 μl/sec. The drug application lasted 10 sec and was followed by a 60 sec wash. The data acquisition and external perfusion control were done using the SuperScopeII software package (GW Instruments, Mass.). […] Peak or steady-state current measurements were normalized and expressed as a fraction of the peak or steady-state control current measurements, which were performed before and after application of every single consentration of agonist or steroid. […]

NR1/NR2C = biological target: T2, NR1/NR2C (Rattus norvegicus, UniProt P35439+Q00961); experiment: as above; format: cell-based
T2 construct: expressed in transfected cells; host or cells: Xenopus oocytes injected with mRNA
Experimental: as §10, §11, §12

NR1011/NR2Dwt = biological target: T3, NR1011/NR2Dwt (Rattus norvegicus, UniProt P35439+Q62645); experiment: NR2 chimera study, Xenopus oocytes, Example 7; format: cell-based; details: 100 μM PS; 300 μM NMDA; 50 μM Glycine
T3 construct: expressed in transfected cells; host or cells: Xenopus oocytes
Description: (§1) The chimeric receptors were generated by first introducing a series of silent restriction sites in both the NR2B and NR2D cDNA. The chimeric cDNAs were then constructed by replacing corresponding regions of one cDNA with that of the other. The silence site mutations were generated by a method involving PCR. […] This cassette was then ligated into the cDNA cut with the same two restriction enzymes.

NR1011/NR2Bwt = biological target: T4, NR1011/NR2Bwt (Rattus norvegicus, UniProt P35439+Q00960); experiment: NR2 chimera study, Xenopus oocytes, Example 7; format: cell-based; details: 100 μM PS; 300 μM NMDA; 50 μM Glycine
T4 construct: expressed in transfected cells; host or cells: Xenopus oocytes
Description: as §1

NR1100/NR2A = NR1100/NR2A (Rattus norvegicus, UniProt P35439+Q00959); experiment: NMDA-induced currents of NR1 splice variants, Xenopus oocytes, Example 4; format: cell-based; design: expressed in transfected cells; host or cells: Xenopus oocytes co-injected with NR1100 and NR2A cRNA; details: NR1100/2A; 100 μM PS; 200 μM NMDA+10 μM glycine
Experimental: (§2) Overnight cultures (500 ml) of transformed bacterial cells were prepared in order to grow sufficient quantities for maxiprep isolation of the plasmid CDNA. Maxipreps were done using a Sorvall RC-5B ultracentrifuge, Qiagen columns and cDNA was quantitated with spectrophotometry (OD260 and OD260/ OD280 ratio). The resulting plasmid cDNA was linearized by digestion with an appropriate restriction enzyme that cleaves distal to the cDNA insert (XhoI for NR2A or NotI for NR1100, NR1000, NR1111, NR1011, NR1101, NR1001). […] The samples were stored at −20° C. until use.
(§3) In vitro transcription was performed using the Ambion mMessage mMachine kit with T7 (NR1100, NR1000, NR1111, NR1011, NR1101, NR1001) RNA polymerase. The reaction was assembled on ice and allowed to incubate at 37° C. for 1-2 hr. The resulting mRNA was precipitated (reaction termination) using lithium chloride/5 mM EDTA solution and dissolved in RNase-free H2O. The concentration (OD260) and OD260/OD280 ratio (should be more than 1.5) was determined by spectrophotometer. The yield of mRNA was generally 15-30 μg. mRNA was stored at −80° C. until use.
(§4) Intracellular recording microelectrodes were fabricated from 100 μl borosilicate glass disposable micropipettes using a 2-step protocol on a standard horizontal Flaming-Brown micropipette puller.

NR1101/NR2A = NR1101/NR2A (Rattus norvegicus, UniProt P35439+Q00959); experiment: as above; format: cell-based; design: expressed in transfected cells; host or cells: Xenopus oocytes injected with NR1101 and NR2A mRNA; details: NR1101/2A; 100 μM PS; 200 μM NMDA+10 μM glycine
Experimental: as §2, §3, §4

NR1000/NR2A = NR1000/NR2A (Rattus norvegicus, UniProt P35439+Q00959); experiment: as above; format: cell-based; design: expressed in transfected cells; host or cells: Xenopus oocytes injected with NR1000 and NR2A mRNA; details: NR1000/2A; 100 μM PS; 200 μM NMDA+10 μM glycine
Experimental: as §2, §3, §4

NR1000/NR2B = biological target: T5, NR1000/NR2B (Rattus norvegicus, UniProt P35439+Q00960); experiment: NMDA receptor currents in Ba-Ringer, Xenopus oocytes, Example 3; format: cell-based
T5 construct: expressed in transfected cells; host or cells: Xenopus oocytes injected with RNA
T5 sequence (Q00960 27-1482, other chains not shown): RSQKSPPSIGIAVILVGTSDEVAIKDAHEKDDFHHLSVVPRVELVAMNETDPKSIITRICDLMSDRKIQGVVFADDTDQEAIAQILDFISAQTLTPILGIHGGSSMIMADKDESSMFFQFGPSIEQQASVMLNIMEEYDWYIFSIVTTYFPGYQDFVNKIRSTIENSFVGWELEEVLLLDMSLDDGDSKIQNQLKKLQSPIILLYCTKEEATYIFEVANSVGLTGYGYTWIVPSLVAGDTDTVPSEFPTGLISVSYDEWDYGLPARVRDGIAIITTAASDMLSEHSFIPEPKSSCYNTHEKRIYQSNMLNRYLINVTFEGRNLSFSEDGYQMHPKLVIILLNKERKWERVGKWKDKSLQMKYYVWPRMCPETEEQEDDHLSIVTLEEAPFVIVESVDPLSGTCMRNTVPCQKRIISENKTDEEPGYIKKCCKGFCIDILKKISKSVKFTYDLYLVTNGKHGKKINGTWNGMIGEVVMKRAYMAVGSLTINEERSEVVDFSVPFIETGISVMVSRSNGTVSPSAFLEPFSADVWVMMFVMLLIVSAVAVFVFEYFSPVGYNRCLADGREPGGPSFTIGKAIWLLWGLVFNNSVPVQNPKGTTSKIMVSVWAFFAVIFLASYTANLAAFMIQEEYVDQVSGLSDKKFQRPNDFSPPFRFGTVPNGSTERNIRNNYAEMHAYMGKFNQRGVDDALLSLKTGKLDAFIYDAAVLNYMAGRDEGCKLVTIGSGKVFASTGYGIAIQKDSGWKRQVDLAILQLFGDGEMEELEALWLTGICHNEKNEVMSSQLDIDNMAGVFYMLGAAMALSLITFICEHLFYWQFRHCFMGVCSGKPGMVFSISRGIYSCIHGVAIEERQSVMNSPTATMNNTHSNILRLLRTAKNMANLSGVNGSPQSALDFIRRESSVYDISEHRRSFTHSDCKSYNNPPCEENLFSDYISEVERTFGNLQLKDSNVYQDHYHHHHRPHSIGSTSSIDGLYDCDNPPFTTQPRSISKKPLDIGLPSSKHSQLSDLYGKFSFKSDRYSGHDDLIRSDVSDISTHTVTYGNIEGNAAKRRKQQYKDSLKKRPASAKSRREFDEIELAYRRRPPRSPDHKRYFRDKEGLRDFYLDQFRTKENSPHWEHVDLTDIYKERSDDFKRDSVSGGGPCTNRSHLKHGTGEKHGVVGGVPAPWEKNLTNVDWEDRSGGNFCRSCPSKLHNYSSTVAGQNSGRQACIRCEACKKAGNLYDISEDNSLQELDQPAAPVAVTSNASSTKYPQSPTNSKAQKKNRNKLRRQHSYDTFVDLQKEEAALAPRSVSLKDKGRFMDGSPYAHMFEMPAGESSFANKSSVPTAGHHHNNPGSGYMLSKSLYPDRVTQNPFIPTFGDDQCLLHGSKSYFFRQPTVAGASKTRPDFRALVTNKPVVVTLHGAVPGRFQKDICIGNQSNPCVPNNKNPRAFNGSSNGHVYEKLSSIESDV

[3] = read-out: 3α5βS Emax (% Change)
[4] = 100 μM PS, […] μM NMDA, 10 μM glycine

Sequence of NR1/NR2B (NR1100) (Q00960 27-1482, other chains not shown): as above

CC(=O)[C@H]1CC[C@H]2[C@@H]3CC[C@@H]4C[C@H](OS(=O)(=O)O)CC[C@]4(C)[C@H]3CC[C@]12C [3α5βS, 3α5β-pregnanolone sulfate]
EC50 (NR1/NR2D (NR1100)): 14 µM | Emax (NR1/NR2D (NR1100); [3]): -98 ± 7% | EC50 (NR1/NR2B (NR1100)): 38 µM | Emax (NR1/NR2B (NR1100); [3]): -82 ± 1% | modulation of NMDA-induced current [1]: strong inhibitors | EC50 (NR1/NR2A (NR1100)): 62 µM | Emax (NR1/NR2A (NR1100); [3]): -81 ± 5% | reduction of NMDA-induced rise in [Ca2+]i [2]: 32±5%

pregnenolone sulfate [PS]
potentiation of membrane current (NR1/NR2B; [4]): 95±6% | maximum potentiation (NR1/NR2B; PS 0.5 to 200 μM): 119±9% | inhibition of NMDA-induced membrane currents (NR1/NR2C; [4]): 32±3% | maximum inhibition (NR1/NR2C; PS 0.5 to 200 μM): 63±9% | inhibition of inward current (NR1011/NR2Dwt): 45.18±2.62% | potentiation of inward current (NR1011/NR2Bwt): 78.36±7.89% | maximum relative current (MRC) (NR1100/NR2A): 1.73 | maximum relative current (MRC) (NR1101/NR2A): 1.78 | maximum relative current (MRC) (NR1000/NR2A): 1.29 | PS Emax (NR1000/NR2B): 0.58 ± 0.04 | PS nHill (NR1000/NR2B): 1.52 ± 0.15
